Measured values taken from US5747247A, “Spectroscopic helicase assay” (The Regents of The University of California, priority 1994, dated 1998).

Experiments:
[1] = test system: E. coli helicase I, helicase II (uvrD), and rep proteins; conditions: George et al., cited from earlier work; for Ki: read-out: Ki for ATPase and helicase activities
[2] = test system: helicase; conditions: other studies (refs 46-48); cited from earlier work
[3] = test system: recBCD enzyme; assay: Dye displacement fluorometric helicase assay (DNA unwinding followed by dye fluorescence); assay type: biochemical, E. coli; conditions: for Apparent rate of unwinding at which the dye titration levels off: 0.5 nM total recBCD, 2 uM SSB, plateau at ~150 nM for H33258 and TO and 375 nM for DAPI; for Apparent rate of unwinding at which the dye titration levels off / Vmax, observed rate of unwinding at saturating enzyme: 20° C.; for Increase of Vmax in absence of SSB protein relative to its presence: SSB protein omitted vs present; for Vmax, observed rate of unwinding: SSB protein omitted; for Vmax, observed rate of unwinding / Vmax, observed rate of unwinding at saturating enzyme: 250 nM DAPI, 100 nM H33258, 300 nM TO; for Vmax, observed rate of unwinding at saturating enzyme / Apparent energy of activation (Ea) of unwinding: with SSB protein; for Vmax, observed rate of unwinding at saturating enzyme: SSB assay gives 250±25; for Apparent energy of activation (Ea) of unwinding: Arrhenius plots from 20°, 25°, 32°, 37° C., SSB assay 9.7
Procedure: (§1) Fluorometric helicase assay: The standard reaction buffer consisted of 25 mM Tris-acetate (pH 7.5), 1 mM Mg(OAc)2, and 1 mM DTT. When SSB protein was included, it was present at a 3-fold molar excess, assuming a site size of 15 nucleotides/monomer under stoichiometric conditions. This corresponds to a protein concentration which is 20% of the DNA (nucleotide) concentration. The DNA substrate was BamHI-digested pBR322 DNA, at a concentration of 10 uM nucleotide (2.1 nM ends).
(§2) The reaction (350 ul total volume) contained standard buffer, linear pBR322 DNA, and the indicated concentration of recBCD enzyme. […] The fluorescence signal due to these components was zeroed out. The fluorophore (either SSB protein or dye) was then added, and the reaction was allowed to equilibrate to the indicated temperature. Unwinding was initiated by the addition of ATP to 3 mM final concentration. […] For SSB protein fluorescence measurements, the value for 100% unwinding was calculated as described previously (28, 41). For dye fluorescence experiments, the value for complete unwinding was obtained by subtracting the fluorescence in the presence of an equimolar amount of ssDNA (i.e., heat-denatured pBR322) (FssDNA) from the fluorescence at the start of the reaction (FdsDNA). The difference in these values (FdsDNA -FssDNA) was taken to be the maximum fluorescence change possible if all of the DNA molecules were fully unwound (Fexp). The observed fluorescence change (Fobs) was divided by this differ ence to obtain the extent of unwinding. Initial rates were then calculated as described previously (28).
(§3) Fluorescence measurements were carried out on a Shimadzu RF5000U spectrofluorophotometer. When the intrinsic fluorescence of SSB protein was measured, the excitation and emission wavelengths were set at 290 and 340 nm, respectively. The excitation and emission wavelengths for the various dyes were determined experimentally in the presence of dsDNA. For AO, these values were 487 and 510 nm; for DAPI, 345 and 467 nm; for EB, 546 and 590 nm; for EHD, 552 and 596 nm; for H33258, 344 and 487 nm; and for TO, 504 and 528 nm. When SSB protein fluorescence was monitored, the band widths were 1.5 and 10 nm for the excitation and emission slits, respectively; for all of the dye fluorescence experiments, these values were 5 and 10 nm, respectively.
To determine whether the presence of dyes affected the observed rate of unwinding, the reaction (including SSB protein) was performed at several concentrations of DAPI, H33258, and TO. The reactions were performed at 20° C. in standard buffer with 10 uM nucleotide (2.1 nM ends) linear pBR322 DNA, 2 uM SSB protein, 0.5 nM total (0.17 nM functional) recBCD enzyme, and the indicated concentration of dye. Unwinding was initiated by adding ATP to a final concentration of 3 mM. […] For each dye (DAPI (.circle-solid.), H33258 (o), or TO (.tangle-solidup.), the initial rate of unwinding was determined as described in the Experimental Procedures and is plotted in panel B as a function of dye concentration. Due to the lag behavior illustrated in panel A, the data at concentrations ≤100 nM are considered unreliable, as indicated by shading this portion of the graph.
In FIG. 4A, raw data from an experiment in which recBCD enzyme concentration was varied at a given concentration of TO are shown; SSB protein was included to allow comparison to previous results. From results such as these, using either DAPI, H33258, or TO, the data in FIG. 4B were generated. Unwinding was performed as in FIG. 3, except that the concentration of recBCD enzyme was varied, and a constant concentration of fluorophore (250 nM for DAPI; 100 nM for H33258; and 300 nM for TO) was used. In panel A, a portion of the raw data obtained with TO are shown. The observed rates of unwinding derived from such experiments are shown in panel B. DAPI, .circle-solid.; H33258, o; TO, .tangle-solidup.. […]

[4] = molecular target: T1, recBCD enzyme (Escherichia coli, UniProt P04993+P07648+P08394); assay: SSB protein fluorescence assay of DNA unwinding in presence of fluorescent dyes; assay type: biochemical, E. coli; conditions: for Rate of DNA unwinding: 20° C., 2 uM SSB protein, 0.5 nM total recBCD enzyme, none = 40.7 ± 4.1
T1 construct: made in house
T1 sequence (P07648 whole entry): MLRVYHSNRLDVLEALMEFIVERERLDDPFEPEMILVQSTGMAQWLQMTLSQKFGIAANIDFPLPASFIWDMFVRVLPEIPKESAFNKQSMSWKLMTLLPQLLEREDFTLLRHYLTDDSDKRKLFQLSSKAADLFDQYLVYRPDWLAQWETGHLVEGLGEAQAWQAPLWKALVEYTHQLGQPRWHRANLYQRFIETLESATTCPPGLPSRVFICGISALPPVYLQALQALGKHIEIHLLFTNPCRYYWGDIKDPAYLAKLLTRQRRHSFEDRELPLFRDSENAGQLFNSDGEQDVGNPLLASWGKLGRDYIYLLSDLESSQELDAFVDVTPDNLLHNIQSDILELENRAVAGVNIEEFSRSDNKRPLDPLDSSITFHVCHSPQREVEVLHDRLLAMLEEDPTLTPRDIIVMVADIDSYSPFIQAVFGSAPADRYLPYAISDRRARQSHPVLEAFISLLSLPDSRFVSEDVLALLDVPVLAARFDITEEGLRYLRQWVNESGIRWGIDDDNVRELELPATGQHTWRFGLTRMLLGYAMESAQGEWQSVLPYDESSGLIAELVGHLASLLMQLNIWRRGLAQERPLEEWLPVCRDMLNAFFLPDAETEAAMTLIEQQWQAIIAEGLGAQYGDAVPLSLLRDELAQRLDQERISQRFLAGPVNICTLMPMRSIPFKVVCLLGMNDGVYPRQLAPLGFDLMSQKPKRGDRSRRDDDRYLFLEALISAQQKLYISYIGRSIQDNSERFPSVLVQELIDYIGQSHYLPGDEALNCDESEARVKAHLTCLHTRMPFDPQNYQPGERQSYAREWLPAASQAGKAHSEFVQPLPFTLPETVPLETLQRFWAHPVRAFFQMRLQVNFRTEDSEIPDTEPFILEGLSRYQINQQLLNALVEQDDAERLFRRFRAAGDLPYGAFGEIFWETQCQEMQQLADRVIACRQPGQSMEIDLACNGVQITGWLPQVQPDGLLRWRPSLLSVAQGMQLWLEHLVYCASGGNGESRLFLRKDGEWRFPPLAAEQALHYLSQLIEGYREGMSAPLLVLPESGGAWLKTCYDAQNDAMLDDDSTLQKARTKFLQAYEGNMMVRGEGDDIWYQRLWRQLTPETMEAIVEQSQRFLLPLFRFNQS
T1 sequence (P04993 whole entry): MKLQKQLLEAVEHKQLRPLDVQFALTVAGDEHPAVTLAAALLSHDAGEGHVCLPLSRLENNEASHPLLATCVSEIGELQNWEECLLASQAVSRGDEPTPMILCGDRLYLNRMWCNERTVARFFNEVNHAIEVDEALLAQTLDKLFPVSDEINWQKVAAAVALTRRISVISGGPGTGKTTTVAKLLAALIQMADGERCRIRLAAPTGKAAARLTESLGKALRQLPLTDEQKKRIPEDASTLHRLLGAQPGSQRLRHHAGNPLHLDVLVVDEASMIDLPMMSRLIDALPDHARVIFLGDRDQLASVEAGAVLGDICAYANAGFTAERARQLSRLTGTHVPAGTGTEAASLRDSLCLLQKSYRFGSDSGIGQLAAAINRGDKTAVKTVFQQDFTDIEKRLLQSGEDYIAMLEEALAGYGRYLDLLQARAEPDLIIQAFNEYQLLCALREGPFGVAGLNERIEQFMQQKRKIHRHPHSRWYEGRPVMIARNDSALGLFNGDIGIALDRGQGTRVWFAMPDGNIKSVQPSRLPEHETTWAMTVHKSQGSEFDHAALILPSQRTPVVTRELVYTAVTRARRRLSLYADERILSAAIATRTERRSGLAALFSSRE
T1 sequence (P08394 whole entry): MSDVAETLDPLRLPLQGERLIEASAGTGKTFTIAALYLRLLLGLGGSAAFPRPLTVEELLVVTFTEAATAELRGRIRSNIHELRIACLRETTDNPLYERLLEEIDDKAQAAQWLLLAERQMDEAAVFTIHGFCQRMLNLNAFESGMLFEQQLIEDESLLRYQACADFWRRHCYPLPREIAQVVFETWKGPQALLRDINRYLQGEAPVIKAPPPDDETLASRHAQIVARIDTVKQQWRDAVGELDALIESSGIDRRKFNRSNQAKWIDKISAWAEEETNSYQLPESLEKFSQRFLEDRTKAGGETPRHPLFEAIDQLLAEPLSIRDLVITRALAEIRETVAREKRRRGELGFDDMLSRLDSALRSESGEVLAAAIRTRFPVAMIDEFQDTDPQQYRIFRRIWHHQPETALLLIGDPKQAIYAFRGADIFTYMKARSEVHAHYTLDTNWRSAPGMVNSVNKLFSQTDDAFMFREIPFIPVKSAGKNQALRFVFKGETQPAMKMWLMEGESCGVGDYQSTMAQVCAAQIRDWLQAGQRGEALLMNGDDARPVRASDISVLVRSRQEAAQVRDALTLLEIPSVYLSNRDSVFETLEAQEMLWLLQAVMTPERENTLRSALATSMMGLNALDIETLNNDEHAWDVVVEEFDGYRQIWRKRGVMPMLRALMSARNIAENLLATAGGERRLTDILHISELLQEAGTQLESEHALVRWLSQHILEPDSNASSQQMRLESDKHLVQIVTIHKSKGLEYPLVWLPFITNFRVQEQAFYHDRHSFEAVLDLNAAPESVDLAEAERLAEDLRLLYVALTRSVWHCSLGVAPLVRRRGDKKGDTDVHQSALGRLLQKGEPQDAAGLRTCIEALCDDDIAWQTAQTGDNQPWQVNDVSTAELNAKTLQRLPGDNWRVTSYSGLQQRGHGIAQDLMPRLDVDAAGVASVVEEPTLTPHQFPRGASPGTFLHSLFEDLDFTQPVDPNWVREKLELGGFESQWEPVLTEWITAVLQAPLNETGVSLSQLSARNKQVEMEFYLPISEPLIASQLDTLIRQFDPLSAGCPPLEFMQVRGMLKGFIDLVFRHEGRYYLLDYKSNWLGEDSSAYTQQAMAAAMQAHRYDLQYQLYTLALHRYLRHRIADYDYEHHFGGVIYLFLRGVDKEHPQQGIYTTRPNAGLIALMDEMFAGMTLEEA
Procedure: as §1, §2, §3
The unwinding reaction was performed at 20° C. in buffer containing 25 mM Tris-acetate (pH 7.5), 1 mM Mg(OAc)2, 3 mM ATP, 1 mM DTT, 10 uM nucleotide BamHI-digested pBR322 DNA, 2 uM SSB protein, 0.5 nM total (0.17 nM functional) recBCD enzyme, and the indicated concentrations of dye. SSB protein fluorescence was monitored.

Row | Structure (SMILES) | Ki [1] [µM] | Apparent rate of unwinding at which the dye titration levels off [3] | Increase of Vmax in absence of SSB protein relative to its presence [3] | Vmax, observed rate of unwinding [3] [nM bp/s] | Vmax, observed rate of unwinding at saturating enzyme [3] [nM bp/s] | Apparent energy of activation (Ea) of unwinding [3] [kcal/mol] | Rate of DNA unwinding ([4]; 100 nM dye) [nm bp/s] | Rate of DNA unwinding ([4]; 250 nM dye) [nm bp/s] | also measured
1 | O=C1c2c(O)ccc(O)c2C(=O)c2c(NCCNCCO)ccc(NCCNCCO)c21 [mitoxantrone] | – | – | – | – | – | – | – | – | Inhibition of helicases ([1]; dependent upon ligand and enzyme): potent but differential inhibition
2 | N=C(N)c1ccc(-c2cc3ccc(C(=N)N)cc3[nH]2)cc1 | 1 to 10 | – | – | – | – | – | – | – | –
3 | COc1c(O)c2c(c3cc(C(=O)N4CCc5c4c(O)c(OC)c4[nH]c(C(=O)N6CC7CC78C6=CC(=O)c6[nH]cc(C)c68)cc54)[nH]c13)CCN2C(N)=O (stereo not shown) [CC-1065] | – | – | – | – | – | – | – | – | Inhibition of helicase activity [2]: inhibition of helicase activity
4 | CN(C)c1ccc2cc3ccc(N(C)C)cc3nc2c1 [AO, acridine orange] | 1 to 10 | – | – | – | – | – | – | – | –
5 | CN1CCN(c2ccc3[nH]c(-c4ccc5[nH]c(-c6ccc(O)cc6)nc5c4)nc3c2)CC1 [H33258, Hoechst 33258] | 1 to 10 | 20-25 nM bp/s | 25-50% | 272±30 | 221±25 | 9.9 | 36.1 ± 4.5 | 35.5 ± 1.9 | Rate of unwinding at optimal dye concentration compared with SSB protein fluorescence assay ([3]; 400 nm DAPI, 300 nm H33258): within experimental error, equal to those obtained using the SSB protein fluorescence assay; Effect on observed rate of unwinding ([4]; dye at 100 or 250 nM, low enzyme concentration): does not affect the observed rate of unwinding
6 | CN1C(=Cc2cc[n+](C)c3ccccc23)Sc2ccccc21 [TO, thiazole orange] | – | 20-25 nM bp/s | 25-50% | 330±25 | 211±15 | 9.7 | 35.6 ± 1.3 | 31.9 ± 0.7 | inhibition at 0.25 µM ([4]; read-out: Decrease of observed rate of unwinding): < 20%
